Assay type in all cases: in vitro ADME
For experiment [1], the target named is CYP3A4 (Homo sapiens, UniProt P08684). As to the kind of experiment: Biological Test Example 6: CYP3A4 inhibition (erythromycin N-demethylation).
For experiment [2], the target named is T1, CYP2C9 (Homo sapiens, UniProt P11712).
T1 construct: purchased Invitrogen 2859; host or cells: insect cells infected with baculovirus (microsomes)
The experiment is described as follows: Biological Test Example 7: CYP2C9 inhibition (naproxen O-demethylation).

The target in experiment [3] is CYP2C19 (Homo sapiens, UniProt P33261). As to the kind of experiment: Biological Test Example 8: CYP2C19 inhibition (diazepam N-demethylation).

Drawing on US8569292B2, “Cyclic inhibitors of 11β-hydroxysteroid dehydrogenase 1” (Vitae Pharmaceuticals, Inc., priority 2008, dated 2013), this text covers IC50 for nine compounds.

As a reminder, the IC50 is the midpoint of a concentration-inhibition curve. Higher therefore signals weaker potency in that assay.

CYP2C19, sequence (P33261 whole entry): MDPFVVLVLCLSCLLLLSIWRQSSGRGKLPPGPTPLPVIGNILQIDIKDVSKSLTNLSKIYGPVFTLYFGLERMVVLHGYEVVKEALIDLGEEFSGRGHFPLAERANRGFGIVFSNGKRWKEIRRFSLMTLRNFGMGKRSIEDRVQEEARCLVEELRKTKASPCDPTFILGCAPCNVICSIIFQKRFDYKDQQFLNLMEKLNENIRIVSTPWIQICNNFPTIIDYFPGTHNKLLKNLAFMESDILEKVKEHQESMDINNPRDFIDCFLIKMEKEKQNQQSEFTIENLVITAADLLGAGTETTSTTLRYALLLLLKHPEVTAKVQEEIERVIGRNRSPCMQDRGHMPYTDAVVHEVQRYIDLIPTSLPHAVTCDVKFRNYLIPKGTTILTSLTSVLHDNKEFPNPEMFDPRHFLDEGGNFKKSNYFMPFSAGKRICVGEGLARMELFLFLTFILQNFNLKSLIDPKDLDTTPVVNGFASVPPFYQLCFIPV
CYP3A4, sequence (P08684 whole entry): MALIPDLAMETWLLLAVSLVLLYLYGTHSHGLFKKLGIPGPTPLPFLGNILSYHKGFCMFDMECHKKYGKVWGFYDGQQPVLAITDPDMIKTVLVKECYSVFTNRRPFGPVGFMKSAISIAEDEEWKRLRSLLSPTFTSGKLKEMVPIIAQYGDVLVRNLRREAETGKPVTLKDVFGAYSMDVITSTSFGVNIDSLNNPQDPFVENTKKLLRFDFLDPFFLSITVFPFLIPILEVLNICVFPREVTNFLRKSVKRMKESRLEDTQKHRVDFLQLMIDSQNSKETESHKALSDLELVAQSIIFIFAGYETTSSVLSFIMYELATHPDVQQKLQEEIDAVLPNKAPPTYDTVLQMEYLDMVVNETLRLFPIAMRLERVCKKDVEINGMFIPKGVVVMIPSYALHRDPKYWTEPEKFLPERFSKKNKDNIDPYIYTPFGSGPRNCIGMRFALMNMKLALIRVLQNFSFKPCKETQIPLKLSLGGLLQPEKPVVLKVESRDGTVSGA
T1 sequence (P11712 whole entry): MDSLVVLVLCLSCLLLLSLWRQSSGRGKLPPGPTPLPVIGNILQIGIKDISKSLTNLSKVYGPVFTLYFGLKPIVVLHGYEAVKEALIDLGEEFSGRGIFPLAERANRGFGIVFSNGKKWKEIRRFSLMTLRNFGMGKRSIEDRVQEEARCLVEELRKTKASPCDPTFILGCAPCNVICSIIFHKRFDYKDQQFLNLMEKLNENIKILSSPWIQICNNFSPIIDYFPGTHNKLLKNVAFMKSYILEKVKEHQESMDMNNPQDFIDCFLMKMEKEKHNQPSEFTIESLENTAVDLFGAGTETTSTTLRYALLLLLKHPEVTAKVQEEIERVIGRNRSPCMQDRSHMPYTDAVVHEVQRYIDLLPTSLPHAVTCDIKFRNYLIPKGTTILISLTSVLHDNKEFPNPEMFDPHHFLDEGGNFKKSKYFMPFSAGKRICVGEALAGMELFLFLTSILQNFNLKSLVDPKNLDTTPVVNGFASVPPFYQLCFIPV

Regarding `CNC(=O)c1ccc(-c2ccc([C@H](C)N3CC[C@](CC(C)(C)O)(c4ccccc4)OC3=O)cc2)cn1` [EXAMPLE 169, 5-(4-{(S)-1-[(S)-6-(2-Hydroxy-2-methyl-propyl)-2-oxo-6-phenyl-[1,3]oxazinan-3-yl]-ethyl}-phenyl)-pyridine-2-carboxylic acid methylamide], the IC50 is 28.4 µM in experiment [1], 45.2 µM in experiment [2] and 5.9 µM in experiment [3].
Consider `C[C@@H](c1ccc(-c2cscn2)cc1)N1CC[C@](CC(C)(C)O)(c2ccccc2)OC1=O` [EXAMPLE 175, (S)-6-(2-Hydroxy-2-methyl-propyl)-6-phenyl-3-[(S)-1-(4-thiazol-4-yl-phenyl)-ethyl]-[1,3]oxazinan-2-one], for which the figures for the half-maximal inhibitory concentration (IC50) in experiment [1], in experiment [2] and in experiment [3] were 9.7 µM, 29.8 µM and 1.8 µM, respectively.
The corresponding values for `C[C@@H](c1ccc(-c2cncc(S(C)(=O)=O)c2)cc1)N1CC[C@](CC(C)(C)O)(c2ccccc2)OC1=O` [EXAMPLE 188, (S)-6-(2-Hydroxy-2-methyl-propyl)-3-{(S)-1-[4-(5-methanesulfonyl-pyridin-3-yl)-phenyl]-ethyl}-6-phenyl-[1,3]oxazinan-2-one] are 42.4 µM, 21.2 µM and greater than 50 µM.
As to `Cc1nc(C)c(-c2ccc([C@H](C)N3CC[C@](CC(C)(C)O)(c4ccccc4)OC3=O)cc2)s1` [EXAMPLE 176, 3-{(S)-1-[4-(2,4-Dimethyl-thiazol-5-yl)-phenyl]-ethyl}-(S)-6-(2-hydroxy-2-methyl-propyl)-6-phenyl-[1,3]oxazinan-2-one], the IC50 in experiment [1] amounted to 7.5 µM; in experiment [2], 6 µM; in experiment [3], 7.9 µM.
As for `C[C@@H](c1ccc(-c2nccs2)cc1)N1CC[C@](CC(C)(C)O)(c2ccccc2)OC1=O` [EXAMPLE 174, (S)-6-(2-Hydroxy-2-methyl-propyl)-6-phenyl-3-[(S)-1-(4-thiazol-2-yl-phenyl)-ethyl]-[1,3]oxazinan-2-one], the IC50 in experiment [1] amounted to 5.4 µM; in experiment [2], 7.8 µM; in experiment [3], 1 µM.
Regarding `C[C@@H](c1ccc(-c2nnc(C(F)(F)F)s2)cc1)N1CC[C@](CC(C)(C)O)(c2ccccc2)OC1=O` [EXAMPLE 179, (S)-6-(2-Hydroxy-2-methyl-propyl)-6-phenyl-3-{(S)-1-[4-(5-trifluoromethyl-[1,3,4]thiadiazol-2-yl)-phenyl]-ethyl}-[1,3]oxazinan-2-one], the values for the IC50 in experiment [1], in experiment [2] and in experiment [3] were 21.1 µM, 10.7 µM and 17 µM, respectively.
The corresponding values for `C[C@@H](c1ccc(-c2cnc(C3CC3)nc2)cc1)N1CC[C@](CC(C)(C)O)(c2ccccc2)OC1=O` [EXAMPLE 192, 3-{(S)-1-[4-(2-Cyclopropyl-pyrimidin-5-yl)-phenyl]-ethyl}-(S)-6-(2-hydroxy-2-methyl-propyl)-6-phenyl-[1,3]oxazinan-2-one] are 11.2 µM, 10.4 µM and 15.5 µM.
In the case of `C[C@@H](c1ccc(-c2cncc([S+](C)[O-])c2)cc1)N1CC[C@](CC(C)(C)O)(c2ccccc2)OC1=O` (stereo partly drawn) [EXAMPLE 189, (S)-6-(2-Hydroxy-2-methyl-propyl)-3-{(S)-1-[4-(5-methanesulfinyl-pyridin-3-yl)-phenyl]-ethyl}-6-phenyl-[1,3]oxazinan-2-one], the IC50 in experiment [1], in experiment [2] and in experiment [3] was greater than 50 µM throughout.
Take `Cc1nn(C)cc1-c1ccc([C@H](C)N2CC[C@](CC(C)(C)O)(c3ccccc3)OC2=O)cc1` [EXAMPLE 193, 3-{(S)-1-[4-(1,3-Dimethyl-1H-pyrazol-4-yl)-phenyl]-ethyl}-(S)-6-(2-hydroxy-2-methyl-propyl)-6-phenyl-[1,3]oxazinan-2-one]: the IC50 in experiment [1] stood at 26.6 µM; in experiment [2], 24.2 µM; in experiment [3], 33.3 µM.
